From patent US20230089916A1, “IRAK DEGRADERS AND USES THEREOF” (Kymera Therapeutics, Inc., priority 2019, published 2023)

Columns and labels:
Format in all cases: cell-based
[1] = system: OCI-LY10 cells (MYD88 mutant); experiment: Cell viability assay (CellTiter-Glo) with OCI-LY10; settings: Homo sapiens, MYD88 mutant line, read-out: OCI-LY10 Viability, CTG IC50
Description: Compound-mediated viability effect on OCI-LY10 or TMD8 was quantitatively determined using the CellTiter-Glo® Luminescent Cell Viability Assay kit from Promega (Catalog number G7570) following manufacturer's recommended procedures. Briefly, OCI-LY10 or TMD8 cells were seeded into 384 well plates (Grenier Bio-One, Catalog number 781080) with a density of 10,000 cells per well. Compounds were then added to the assay plate with final top concentration of 10 μM and 1:3 dilution series with total of 9 doses. The final DMSO concentration was normalized to 0.2%. The assay plates were incubated at 37° C. for 4 days under 5% CO2. Then the assay plate was equilibrated at room temperature for 10 minutes. To determine cell viability, 30 μL CellTiter Glo reagent was added to each well and the assay plate was centrifuged at 1000 rpm for 30 second, incubated at room temperature for 10 min, and analyzed by detecting the luminescence using a multimode plate reader (EnVision 2105, PerkinElmer). The data was then analyzed by software Prism 7.0 from GraphPad and the dose response curves were fit using a three-parameter logistic equation to calculate IC50.

SU-DHL6 cells (MYD88 WT) = experiment: Cell viability (CTG) with SU-DHL6; settings: Homo sapiens, SU-DHL-6; MYD88 WT line
[2] = system: SU-DHL2 cells (MYD88 mutant); experiment: Cell viability (CTG) with SU-DHL2; settings: Homo sapiens, SU-DHL-2; MYD88 mutant line
[3] = system: OCI-LY19 cells (MYD88 WT); experiment: Cell viability (CTG) with OCI-LY19; settings: Homo sapiens, MYD88 WT line
U2932 cells (MYD88 WT) = experiment: Cell viability (CTG) with U2932; settings: Homo sapiens, MYD88 WT line

IC50 [1]: 3.5 µM | IC50 (SU-DHL6 cells (MYD88 WT)): 4.1 µM | IC50 [2]: > 10 µM | IC50 [3]: > 10 µM
SMILES: CC[C@@H]1CC(=O)N[C@@H]1COc1ncc(C#C[C@H]2CC[C@H](CN3CCC(OCCCc4cccc5c4n(C)c(=O)n5C4CCC(=O)NC4=O)CC3)CC2)c2cc(C(N)=O)c(OC)cc12 (some centres unmarked) [I-1]
IC50 (U2932 cells (MYD88 WT)): > 10 µM
